Results on one substance are retold here after US20220273752A1, “MODULATION OF DENDRITIC CELL FUNCTION BY THE PHOSPHOLIPID MESSENGER LPA” (Cornell University, priority 2019, published 2022).

What all share (assay type): cell-based, murine
Assay [1] concerns BMDCs. Nature of the assay: RT-qPCR of type-I IFN target genes in BMDCs. How it is done: FIG. 11A-11H illustrate that LPA downregulates type-I IFN target genes in dendritic cells. BMDCs were left untreated or incubated with LPA (100 uM) for 2 hours and 6 hours, and gene expression was determined by RT-qPCR. **P<0.001, ***P<0.0005, ****P<0.0001. FIG. 11A illustrates downregulation of Ddx58 mRNA (encoding DExD/H-box helicase 58) relative to Actb expression at 2 hours and 6 hours after LPA treatment of BMDCs. FIG. 11B illustrates downregulation of Ifit1 mRNA (encoding interferon-induced protein with tetratricopeptide repeats 1) relative to Actb expression at 2 hours and 6 hours after LPA treatment of BMDCs. FIG. 11C illustrates downregulation of Ifit2 mRNA (encoding interferon-induced protein with tetratricopeptide repeats 2) relative to Actb expression at 2 hours and 6 hours after LPA treatment of BMDCs. FIG. 11D illustrates downregulation of Isg15 mRNA (interferon-stimulated gene 15) relative to Actb expression at 2 hours and 6 hours after LPA treatment of BMDCs. FIG. 11E illustrates downregulation of Ciita mRNA (encoding a Class II Major Histocompatibility Complex Transactivator) relative to Actb expression at 2 hours and 6 hours after LPA treatment of BMDCs. FIG. 11F illustrates downregulation of Oas1a mRNA (encoding 2′-5′ oligoadenylate synthetase 1A) relative to Actb expression at 2 hours and 6 hours after LPA treatment of BMDCs. […]

Assay [2] has as its system BMDCs, sDCs and pDCs. Nature of the assay: IFN-β ELISA in DCs stimulated with TLR agonists. The settings on record: Poly (I:C), LPS or CpG ODN1585, LPA 10 uM and 100 uM. How it is done:
FIG. 12A-12D illustrate that LPA represses IFN-β production by diverse DC types. Splenic dendritic cells (sDCs), bone marrow dendritic cells (BMDCs) and plasmacytoid dendritic cells (pDCs) were stimulated with Poly (I:C) (a high molecular weight, synthetic analog of double-stranded RNA (dsRNA) that is a potent inducer of interferon), LPS (lipopolysaccharide) or CpG ODN1585 (a synthetic immunostimulatory oligonucleotide) in the presence or absence of LPA (10 uM and 100 uM). IFN-β protein expression levels were determined by ELISA. **P<0.001, ***P<0.0005, ****P<0.0001. FIG. 12A illustrates IFN-β protein expression in splenic DCs (sDCs) after treatment with LPA and/or Poly (I:C). FIG. 12B illustrates IFN-β protein expression in bone marrow dendritic cells (BMDCs) after treatment with LPA and/or Poly (I:C). FIG. 12C illustrates IFN-β protein expression in bone marrow dendritic cells (BMDCs) after treatment with LPS and/or LPA. FIG. 12D illustrates IFN-β protein expression in plasmacytoid DCs (pDCs) after treatment with ODN1585 and/or LPA.
These effects also occurred in diverse DC types such as BMDCs, splenic DCs (sDCs) and plasmacytoid DCs (pDCs) during stimulation through Toll-like Receptors (TLRs) or upon exposure to cancer cells treated with inhibitors of poly ADP-ribose polymerase (PARP) that induce DNA damage. […] The structure of Talazoparib is shown below.
(An ELISA detects its analyte on a solid surface through an enzyme-linked reagent.)

Assay [3] has as its system dendritic cells. Nature of the assay: Genome-wide transcriptional profiling of dendritic cells by RNA-seq. To be noted: 100 μM LPA. On the procedure: RNA was obtained from LPA-treated bone marrow-derived DCs (BMDCs) and RNA sequencing was performed. The RNA-sequencing data and Ingenuity Pathway Analyses (IPA) was performed on the RNA from LPA-treated bone marrow-derived DCs (BMDCs).

lysophosphatidic acid [LPA]: the “type-I IFN target gene expression (Ddx58, Ifit1, Ifit2, Isg15, Ciita, Oas1a, Oas1g, Oas2)” value in assay [1] (BMDCs, LPA 100 uM, 2 hours and 6 hours) is given as “decreased”. For the same substance, in assay [1] (coculture), the “expression of type-I IFN-related genes in BMDCs exposed to Talazoparib-treated ovarian cancer cells” value was “prevented expression”. The “IFN-β protein levels upon TLR agonist stimulation” value in assay [2] is on record as “decreased levels”. Besides, the “number of genes demonstrating severe deregulation” value in assay [3] is recorded as ~4,000 genes.
